According to patent US9877993B2, “Composition for cognitive and cosmetic purposes” (BIOTROPICS MALAYSIA BERHAD, priority 2012, dated 2018):
Where two headings read alike, the source gives them in different places.

Assays:
[1] = system: Collagenase from Clostridium histolyticum; experiment: Collagenase inhibition bioassay in vitro (EnzChek gelatinase/collagenase kit); assay type: biochemical
Procedure: Solvents and reagents: EnzChek™gelatinase/Collagenase Assay kit (E12055, Molecular probes, Invitrogen, USA, Stored at −20° C.) containing: DQ gelatin from pigskin, Flourescein conjugate, 10× reaction buffer, 1,10 Phenanthroline monohydrate, Collagenase from Clostridium histolyticum.
2.5 mg of sample was prepared by dissolving it into 200 μl of DMSO and made up to 10 ml with 1× reaction buffer. Further dilutions were made as required. The enzymatic cleavage of DQ gelatin, Flourescein conjugate releases flourescent peptide. The increase in fluorescence is proportional to proteolytic activity. The digested product form DQ gelatin, Flourescein conjugate is excited with light at 490 nm and the emitted light at 520 nm is detected in a fluorometric plate reader.
Collagenase inhibition assay was carried out as per the kit insert of EnzChek™gelatinase/Collagenase Assay kit (E12055, Molecular probes, Invitrogen, USA). In brief, 80 μl of 1× reaction buffer/vehicle buffer/test solution/positive control of various concentrations, 100 μl of enzyme solution (0.1 units/ml), 20 μl of substrate solution (1 mg/ml) were added and mixed for 15 sec, incubated at 25° C. for 2 hours and read in a fluorescence microplate reader [Fluostar Optima, BMG Labtech, Germany] with the following parameters wherein it was excited at 490 nm, and the emission at 520 nm was recorded by the Costar 96 fluorometric plate reader.
A control reaction was carried out without the test samples respective sample blanking, control blanking and vehicle blanking were done (which contained all reagents except the enzymes). The percentage inhibition was calculated as follows:
[formula] where AFU=arbitrary fluorescence units and IC50 was calculated using log-probit analysis.

scopolamine treated mice = experiment: Barnes maze, scopolamine induced deficits in learning and memory; assay type: in vivo, C57BL/6 mice
Source text: The animals are placed on an elevated, open, circular platform. The animal is exposed to intense light, or to a loud noise. In response to this intense stimulation the animal searches for shelter and enters one of the holes around the platform. Although the device was originally designed to be used with rats, soon it experienced modifications in order to be used with mice as well. Indeed, the device has been considered appropriate for this species because of its ability to find and escape through small holes.
Scopolamine, a muscarinic cholinergic antagonist, is known to cause impairments in Barnes maze testing. These impairments can be reversed by increasing cholinergic tone by the administration of cholinesterase inhibitors such as donepezil.
The scopolamine induced deficits in learning were evidenced by the increase in both total and primary errors, total and primary latency and total and primary path length. The Barnes mazes testing involves the parameters as set forth below.
Primary Path Length (cm): The distance moved by the subject before first contact with the escape hole. First contact is defined as the point of the nose touching the escape hole.
Total Path Length (cm): The distance moved by the subject before completing the task. Completion of task is defined as the entering of the subject into escape box. This ends the trial.
Primary Errors: The count of the number of errors made by the subject before first contact with the escape hole. Any contact of the nose point to a non-escape hole is considered as an error. Multiple contacts to the same non-escape hole are counted as multiple errors under this context. Total Errors: The count of the number of errors made by the subject throughout the trial. Any contact of the nose point to a non-escape hole is considered as an error. Multiple contacts to the same non-escape hole are counted as multiple errors under this context. Primary Latency (sec): The latency to the first contact with the escape hole by the nose point of the subject. Total Latency (sec): The latency for subject to complete the task. Completion of task is defined as the entering of the subject into escape box, which ends the trial. (i) Test Article
The test articles, propriety Polygonum minus extract and commercially available Ginkgo biloba extract (comparator extract) were used in this study. These extracts were prepared and stored for the project to the supplier's specifications. The doses of the extract chosen for the study were identified by the supplier A 30× stock suspension was prepared every week for each article. This was aliquot into batches which were then stored at 4° C. throughout the week. The stock suspension was diluted with ultra-pure water to working concentration every day before the dosing, and discarded after the dosing. Oral gavage needles were filled with the required amounts of suspension. Care was taken to ensure the even distribution of particles by vortex-mixing the suspensions before preparation in individual syringes, and also by syringe-mixing the diluted test article. The dose and time of scopolamine administration has been previously shown to produce deficits in spatial navigation tasks in rodents. The dose was increased from the initially reported 0.3 mg/kg to 0.5 mg/kg, as the higher dose would produce a more reliable deficit.
2-6 month-old male C57BL/6 mice (20-25 g), (n=12 to 14) were supplied by BioLASCO (Taiwan). They were housed in an IVC system (Allentown, USA) under a 12/12-h light/dark (200-300 Lux) cycle (lights on 07:00 h) with free access to food (Labdiet, formulated laboratory chow) and water and humidity keep between 50%-70%. The total animals used for each treatment are shown in the Table 13 below (subjects used for each arm in the experiment).
Chronic treatment via p.o. was conducted with the TEST COMPOUNDS (test dose 1 and 2) as per Table 12 and Table 12 above and CONTROL […] (vehicle and ginkgo) continuously for 19 days. Dosing was given daily at 1800 hr. […]

[2] = donepezil 1 mg/kg i.p. + scopolamine
[3] = scopolamine 0.5 mg/kg i.p. vs vehicle control treated group
[4] = scopolamine 0.5 mg/kg i.p. vs vehicle treated control mice

SMILES: O.c1cnc2c(c1)ccc1cccnc12 [1,10-Phenanthroline monohydrate]
- % inhibition [1]: 40.81%
- % inhibition ([1]; 12.5 μM): 0.00%
- % inhibition ([1]; 25 Mm): 11.60%
- % inhibition ([1]; 100 Mm): 88.00%
- IC50 ([1]; log-probit analysis, read-out: IC50 (95% confidence interval)): 53.2 µM

SMILES: COc1cc2c(cc1OC)C(=O)C(CC1CCN(Cc3ccccc3)CC1)C2 (stereo not shown) [donepezil]
- Primary and total latency, scopolamine induced deficit (scopolamine treated mice; [2]): A similar result is obtained
- Scopolamine induced deficits in acquisition (learning) phase (scopolamine treated mice; [2]): attenuated
- Path length, scopolamine induced deficit (scopolamine treated mice; donepezil 1 mg/kg i.p. + scopolamine 0.5 mg/kg i.p.): did not show a scopolamine induced deficit
- Probe trial, time spent in target segment (memory deficit) (scopolamine treated mice; donepezil 1 mg/kg i.p. + scopolamine, day 5): reversed the scopolamine deficit
- Total errors, scopolamine induced deficit (scopolamine treated mice; donepezil 1 mg/kg i.p. + scopolamine, days one and two): deficits for total errors were not seen

SMILES: CN1[C@@H]2C[C@@H](OC(=O)[C@H](CO)c3ccccc3)C[C@H]1[C@@H]1O[C@@H]12 [scopolamine]
- Primary and total latency, learning (scopolamine treated mice; scopolamine 0.5 mg/kg i.p. vs vehicle control): induces a deficit in learning
- Primary path length, performance (scopolamine treated mice; [3]): decreased performance only on day two
- Total path length, days with decreased performance (scopolamine treated mice; [3]): days one two and three
- Primary errors, learning (scopolamine treated mice; [4]): induced a deficit in learning on day two
- Total errors, days with deficit in learning (scopolamine treated mice; [4]): on days one and two
- Probe trial, preference for target segment (memory) (scopolamine treated mice; scopolamine 0.5 mg/kg i.p., day 5): induced a deficit in memory
